This experiment concerns the target human F508del-CFTR (Homo sapiens, UniProt P13569, DEL508-508). Description: F508del-CFTR cell surface expression (corrector activity), DiscoveRx ß-galactosidase complementation chemiluminescence assay in recombinant U2OS cell line.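 For all read-outs here: U2OS cells co-expressing ProLink-tagged F508del-CFTR and a membrane-anchored enzyme acceptor, where more surface CFTR restores β-galactosidase activity measured by chemiluminescence.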 The settings on record: for EC50: EC50, F508del-CFTR cell surface expression, U2OS cells, 16h compound incubation, geomean values; for Emax: U2OS, in relation to Emax of corrector lumacaftor (=100%), arithmetic mean values.

For orientation: EC50 means the concentration that produces a half-maximal response. The Emax is the maximal effect, on the per cent scale that the assay sets.

Sequence of human F508del-CFTR (P13569 with tags, fused parts or gaps DEL508-508): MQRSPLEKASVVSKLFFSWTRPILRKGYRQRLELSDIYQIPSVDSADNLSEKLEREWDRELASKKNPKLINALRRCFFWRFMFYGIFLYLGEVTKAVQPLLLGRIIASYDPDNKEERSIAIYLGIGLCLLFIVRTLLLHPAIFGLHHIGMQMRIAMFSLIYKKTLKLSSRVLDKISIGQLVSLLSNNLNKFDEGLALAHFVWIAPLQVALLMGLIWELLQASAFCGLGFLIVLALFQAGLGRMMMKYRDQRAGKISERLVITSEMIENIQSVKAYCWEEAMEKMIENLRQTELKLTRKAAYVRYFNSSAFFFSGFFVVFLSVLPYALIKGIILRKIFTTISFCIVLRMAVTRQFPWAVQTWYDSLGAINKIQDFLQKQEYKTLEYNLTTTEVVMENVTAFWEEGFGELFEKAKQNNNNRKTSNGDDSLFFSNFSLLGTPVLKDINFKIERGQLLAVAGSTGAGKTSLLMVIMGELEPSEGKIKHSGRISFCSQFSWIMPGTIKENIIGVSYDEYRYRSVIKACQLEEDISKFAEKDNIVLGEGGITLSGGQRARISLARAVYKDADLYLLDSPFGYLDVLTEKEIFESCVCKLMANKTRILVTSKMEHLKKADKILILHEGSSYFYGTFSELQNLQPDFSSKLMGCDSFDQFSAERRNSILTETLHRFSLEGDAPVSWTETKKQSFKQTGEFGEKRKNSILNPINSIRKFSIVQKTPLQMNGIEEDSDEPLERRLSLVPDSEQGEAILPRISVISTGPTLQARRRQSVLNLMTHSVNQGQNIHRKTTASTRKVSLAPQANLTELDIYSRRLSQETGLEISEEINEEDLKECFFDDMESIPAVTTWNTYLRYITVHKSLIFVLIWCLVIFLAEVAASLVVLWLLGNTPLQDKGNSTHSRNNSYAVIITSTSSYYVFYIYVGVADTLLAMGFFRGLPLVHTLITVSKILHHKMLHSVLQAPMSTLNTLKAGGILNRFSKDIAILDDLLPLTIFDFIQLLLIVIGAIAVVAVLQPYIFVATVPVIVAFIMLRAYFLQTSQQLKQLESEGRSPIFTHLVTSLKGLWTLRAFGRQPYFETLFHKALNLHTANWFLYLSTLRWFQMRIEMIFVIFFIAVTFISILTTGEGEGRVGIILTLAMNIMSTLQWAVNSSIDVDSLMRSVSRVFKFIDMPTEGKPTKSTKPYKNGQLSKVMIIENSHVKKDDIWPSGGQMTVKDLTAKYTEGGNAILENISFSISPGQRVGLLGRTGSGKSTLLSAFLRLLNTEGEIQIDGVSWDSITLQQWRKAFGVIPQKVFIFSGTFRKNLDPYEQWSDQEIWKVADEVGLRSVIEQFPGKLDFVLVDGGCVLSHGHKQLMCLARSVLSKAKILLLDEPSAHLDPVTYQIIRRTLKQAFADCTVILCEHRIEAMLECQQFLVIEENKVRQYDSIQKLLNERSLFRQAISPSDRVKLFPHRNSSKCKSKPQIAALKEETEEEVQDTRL

With `CC(C)C[C@H]1C(=O)N(C)CC(=O)N[C@H](Cc2ccccc2)COc2cccc(OC(F)F)c2C(=O)N[C@H](C(=O)NCCc2ccc3c(c2)OCO3)CC(=O)N1C` [Example 616, (3R,9S,13S)-N-(2-(benzo[d][1,3]dioxol-5-yl)ethyl)-3-benzyl-16-(difluoromethoxy)-9-isobutyl-7,10-dimethyl-5,8,11,15-tetraoxo-2,3,4,5,6,7,8,9,10,11,12,13,14,15-tetradecahydrobenzo[p][1]oxa[4,7,10,14]tetraazacycloheptadecine-13-carboxamide], the EC50 is 581 nM and the Emax came out at 92%.
In the case of `Cc1cc(CCNC(=O)[C@@H]2CC(=O)N(C)[C@@H](CC(C)C)C(=O)N3CCN(CC(C)C)C[C@@H]3C(=O)N[C@H](Cc3ccccc3)COc3ccc4ccccc4c3C(=O)N2)on1` [Example 617, (4aR,7R,18S,22S)-7-benzyl-3,22-diisobutyl-21-methyl-N-(2-(3-methylisoxazol-5-yl)ethyl)-5,16,20,23-tetraoxo-2,3,4,4a,5,6,7,8,16,17,18,19,20,21,22,23-hexadecahydro-1H-naphtho[1,2-p]pyrazino[2,1-f][1]oxa[4,7,10,14]tetraazacycloheptadecine-18-carboxamide], the EC50 worked out at 75 nM and the Emax was 318%.
In the case of `COc1cc(CCNC(=O)[C@@H]2CC(=O)N(C)[C@@H](CC(C)C)C(=O)N3CCN(C(C)C)C[C@@H]3C(=O)N[C@H](Cc3ccccc3)COc3ccc4ccccc4c3C(=O)N2)cc(OC)c1` [Example 618, (4aR,7R,18S,22S)-7-benzyl-N-(3,5-dimethoxyphenethyl)-22-isobutyl-3-isopropyl-21-methyl-5,16,20,23-tetraoxo-2,3,4,4a,5,6,7,8,16,17,18,19,20,21,22,23-hexadecahydro-1H-naphtho[1,2-p]pyrazino[2,1-f][1]oxa[4,7,10,14]tetraazacycloheptadecine-18-carboxamide], the EC50 turned out to be 80 nM and the Emax is 309%.
As for `COc1cccc(CCNC(=O)[C@@H]2CC(=O)N(C)[C@@H](CC(C)C)C(=O)N3CCN(CC(C)C)C[C@@H]3C(=O)N[C@H](Cc3ccccc3)COc3ccc4nc(C)oc4c3C(=O)N2)c1` [Example 619, (8S,12S,18aR,21R)-21-benzyl-12,17-diisobutyl-N-(3-methoxyphenethyl)-4,11-dimethyl-6,10,13,19-tetraoxo-6,7,8,9,10,11,12,13,16,17,18,18a,19,20,21,22-hexadecahydro-15H-oxazolo[4′,5′:5,6]benzo[1,2-p]pyrazino[2,1-f][1]oxa[4,7,10,14]tetraazacycloheptadecine-8-carboxamide], the EC50 amounted to 155 nM and the Emax stood at 322%.
The like results for `Cc1cc(CCNC(=O)[C@@H]2CC(=O)N(C)[C@@H](CC(C)C)C(=O)N3CCN(CC(C)C)C[C@@H]3C(=O)N[C@H](Cc3ccccc3)COc3ccc4nc(C)oc4c3C(=O)N2)on1` [Example 620, (8S,12S,18aR,21R)-21-benzyl-12,17-diisobutyl-4,11-dimethyl-N-(2-(3-methylisoxazol-5-yl)ethyl)-6,10,13,19-tetraoxo-6,7,8,9,10,11,12,13,16,17,18,18a,19,20,21,22-hexadecahydro-15H-oxazolo[4′,5′:5,6]benzo[1,2-p]pyrazino[2,1-f][1]oxa[4,7,10,14]tetraazacycloheptadecine-8-carboxamide] were, in that order, 316 nM and 266%.
Turning to `Cc1cc(CCNC(=O)[C@@H]2CC(=O)N(C)[C@@H](CC(C)C)C(=O)N3CCN(CC(C)C)C[C@H]3C(=O)N[C@H](Cc3ccccc3)COc3ccc4nc(C)oc4c3C(=O)N2)on1` [Example 621, (8S,12S,18aS,21R)-21-benzyl-12,17-diisobutyl-4,11-dimethyl-N-(2-(3-methylisoxazol-5-yl)ethyl)-6,10,13,19-tetraoxo-6,7,8,9,10,11,12,13,16,17,18,18a,19,20,21,22-hexadecahydro-15H-oxazolo[4′,5′:5,6]benzo[1,2-p]pyrazino[2,1-f][1]oxa[4,7,10,14]tetraazacycloheptadecine-8-carboxamide], the concentration giving a half-maximal response (EC50) stood at 339 nM and the Emax came out at 288%.
The like results for `Cc1cc(CCNC(=O)[C@@H]2CC(=O)N(C)[C@@H](CC(C)C)C(=O)N3CCN(CC(C)C)C[C@@H]3C(=O)N[C@H](Cc3ccccc3)COc3cnc4ccccc4c3C(=O)N2)on1` [Example 622, (9S,13S,19aR,22R)-22-benzyl-13,18-diisobutyl-12-methyl-N-(2-(3-methylisoxazol-5-yl)ethyl)-7,11,14,20-tetraoxo-7,8,9,10,11,12,13,14,17,18,19,19a,20,21,22,23-hexadecahydro-16H-pyrazino[2′,1′:6,7][1]oxa[4,7,10,14]tetraazacycloheptadecino[17,16-c]quinoline-9-carboxamide] were, in that order, 199 nM and 296%.
Turning to `Cc1cc(CCNC(=O)[C@@H]2CC(=O)N(C)[C@@H](CC(C)C)C(=O)N3CCN(C(C)C)C[C@@H]3C(=O)N[C@H](Cc3ccccc3)COc3ccc4ccccc4c3C(=O)N2)on1` [Example 623, (4aR,7R,18S,22S)-7-benzyl-22-isobutyl-3-isopropyl-21-methyl-N-(2-(3-methylisoxazol-5-yl)ethyl)-5,16,20,23-tetraoxo-2,3,4,4a,5,6,7,8,16,17,18,19,20,21,22,23-hexadecahydro-1H-naphtho[1,2-p]pyrazino[2,1-f][1]oxa[4,7,10,14]tetraazacycloheptadecine-18-carboxamide], the EC50 was determined as 248 nM and the Emax is 349%.
Consider `Cc1nc2ccc3c(c2o1)C(=O)N[C@H](C(=O)NCCc1cccc(OC(F)F)c1)CC(=O)N(C)[C@@H](CC(C)C)C(=O)N1CCOC[C@@H]1C(=O)N[C@H](Cc1ccccc1)CO3` [Example 625], for which the EC50 stood at 781 nM and the Emax came out at 186%.
As for `CC(C)C[C@H]1C(=O)N(CCCc2ccccc2)CC(=O)N[C@H](Cc2ccccc2)COc2ccc3ccccc3c2C(=O)N[C@H](C(=O)NCCc2ccc3c(c2)OCO3)CC(=O)N1C` [Example 626, (3S,7S,13R)-N-(2-(benzo[d][1,3]dioxol-5-yl)ethyl)-13-benzyl-7-isobutyl-6-methyl-1,5,8,11-tetraoxo-9-(3-phenylpropyl)-1,2,3,4,5,6,7,8,9,10,11,12,13,14-tetradecahydronaphtho[1,2-p][1]oxa[4,7,10,14]tetraazacycloheptadecine-3-carboxamide], the EC50 is 163 nM and the Emax was 253%.
In the case of `CC(C)C[C@H]1C(=O)N2CCOC[C@@H]2C(=O)N[C@H](Cc2ccccc2)COc2cnc3c(F)cccc3c2C(=O)N[C@H](C(=O)NCCc2ccc3c(c2)OCCO3)CC(=O)N1C` [Example 627, (9S,13S,19aR,22R)-22-benzyl-N-(2-(2,3-dihydrobenzo[b][1,4]dioxin-6-yl)ethyl)-3-fluoro-13-isobutyl-12-methyl-7,11,14,20-tetraoxo-7,8,9,10,11,12,13,14,16,17,19,19a,20,21,22,23-hexadecahydro-[1,4]oxazino[3′,4′:6,7][1]oxa[4,7,10,14]tetraazacycloheptadecino[17,16-c]quinoline-9-carboxamide], the EC50 was 786 nM and the Emax came to 395%.
Regarding `COc1cccc(CCNC(=O)[C@@H]2CC(=O)N(C)[C@@H](CC(C)C)C(=O)N(C)C3(CC3)C(=O)N[C@H](Cc3ccccc3)COc3ccc4nc(C)oc4c3C(=O)N2)c1` [Example 628, (8′R,14′S,18′S)-8′-benzyl-14′-isobutyl-N-(3-methoxyphenethyl)-2′,12′,15′-trimethyl-10′,13′,16′,20′-tetraoxo-7′,8′,9′,10′,13′,14′,15′,16′,17′,18′,19′,20′-dodecahydro-12′H-spiro[cyclopropane-1,11′-oxazolo[4′,5′:5,6]benzo[1,2-p][1]oxa[4,7,10,14]tetraazacycloheptadecine]-18′-carboxamide], the EC50 worked out at 363 nM and the Emax is 355%.
On to `Cc1cc(CCNC(=O)[C@@H]2CC(=O)N(C)[C@@H](CC(C)C)C(=O)N3CCCC[C@@H]3C(=O)N[C@H](Cc3ccccc3)COc3ccc4c(C)noc4c3C(=O)N2)on1` [Example 629, (8S,12S,18aR,21R)-21-benzyl-12-isobutyl-3,11-dimethyl-N-(2-(3-methylisoxazol-5-yl)ethyl)-6,10,13,19-tetraoxo-6,7,8,9,10,11,12,13,16,17,18,18a,19,20,21,22-hexadecahydro-15H-isoxazolo[4′,5′:5,6]benzo[1,2-p]pyrido[2,1-f][1]oxa[4,7,10,14]tetraazacycloheptadecine-8-carboxamide], for which the EC50 is 521 nM and the Emax was 215%.
The like results for `Cc1cc(CCNC(=O)[C@@H]2CC(=O)N(C)[C@@H](CC3CCCC3)C(=O)N3CCCC[C@@H]3C(=O)N[C@H](Cc3ccccc3)COc3ccc4c(C)noc4c3C(=O)N2)on1` [Example 630, (8S,12S,18aR,21R)-21-benzyl-12-(cyclopentylmethyl)-3,11-dimethyl-N-(2-(3-methylisoxazol-5-yl)ethyl)-6,10,13,19-tetraoxo-6,7,8,9,10,11,12,13,16,17,18,18a,19,20,21,22-hexadecahydro-15H-isoxazolo[4′,5′:5,6]benzo[1,2-p]pyrido[2,1-f][1]oxa[4,7,10,14]tetraazacycloheptadecine-8-carboxamide] were, in that order, 261 nM and 175%.
In the case of `Cc1cc(CCNC(=O)[C@@H]2CC(=O)N(C)[C@@H](CC3CCCC3)C(=O)N3CCCC[C@H]3C(=O)N[C@H](Cc3ccccc3)COc3ccc4c(C)noc4c3C(=O)N2)on1` [Example 631, (8S,12S,18aS,21R)-21-benzyl-12-(cyclopentylmethyl)-3,11-dimethyl-N-(2-(3-methylisoxazol-5-yl)ethyl)-6,10,13,19-tetraoxo-6,7,8,9,10,11,12,13,16,17,18,18a,19,20,21,22-hexadecahydro-15H-isoxazolo[4′,5′:5,6]benzo[1,2-p]pyrido[2,1-f][1]oxa[4,7,10,14]tetraazacycloheptadecine-8-carboxamide], the EC50 came out at 898 nM and the Emax came to 133%.
